As usually defined, the IC50 is the concentration at which inhibition is half-maximal.

In one experiment the target is T1, CPT1 liver (Rattus norvegicus, UniProt P32198).
T1 construct: fresh mitochondrial preparations obtained from the liver or heart of Fischer rats; from tissue; host or cells: liver mitochondria of Fischer rats
T1 sequence (P32198 1-773): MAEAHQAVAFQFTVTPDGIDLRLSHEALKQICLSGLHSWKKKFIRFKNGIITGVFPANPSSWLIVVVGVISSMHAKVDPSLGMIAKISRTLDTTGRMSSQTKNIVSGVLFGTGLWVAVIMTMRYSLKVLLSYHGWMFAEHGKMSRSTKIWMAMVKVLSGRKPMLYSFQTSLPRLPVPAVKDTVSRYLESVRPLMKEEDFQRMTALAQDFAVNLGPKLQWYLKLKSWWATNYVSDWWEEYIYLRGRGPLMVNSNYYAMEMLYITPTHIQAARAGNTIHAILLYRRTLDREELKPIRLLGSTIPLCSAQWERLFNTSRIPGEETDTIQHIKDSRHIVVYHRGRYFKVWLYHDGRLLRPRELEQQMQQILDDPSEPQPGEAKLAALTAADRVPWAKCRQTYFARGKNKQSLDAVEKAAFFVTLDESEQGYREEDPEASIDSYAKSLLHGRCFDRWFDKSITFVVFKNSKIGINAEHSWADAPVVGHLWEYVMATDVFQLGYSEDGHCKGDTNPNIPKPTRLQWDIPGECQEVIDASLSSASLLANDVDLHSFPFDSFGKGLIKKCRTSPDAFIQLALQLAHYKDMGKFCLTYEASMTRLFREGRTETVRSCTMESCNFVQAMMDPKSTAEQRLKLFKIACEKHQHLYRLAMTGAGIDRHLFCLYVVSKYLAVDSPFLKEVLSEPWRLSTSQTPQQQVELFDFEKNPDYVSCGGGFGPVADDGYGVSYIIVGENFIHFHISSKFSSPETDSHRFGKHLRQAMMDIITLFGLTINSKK
The experiment can be described thus: Inhibition of CPT in fresh rat liver mitochondrial preparations. The format is biochemical, Fischer rats. As to conditions: rat liver mitochondria, 50 μM [14C]palmitoyl-CoA, 10 mM L-carnitine, 37° C., 1 minute. How it is done: 100 μl of a mitochondrial suspension, containing 50 μM of [^14C] palmitoyl-CoA (spec.act. 10000 dpm/mole) and 10 mM of L-carnitine, are incubated at 37° C. in the presence of stepped concentrations (0-3 mM) of product under examination.
(§1) The IC50 is then determined.

In another experiment the target is T2, CPT1 heart (Rattus norvegicus, UniProt Q63704).
T2 construct: fresh mitochondrial preparations obtained from the liver or heart of Fischer rats; from tissue; host or cells: heart mitochondria of Fischer rats
T2 sequence (Q63704 1-772): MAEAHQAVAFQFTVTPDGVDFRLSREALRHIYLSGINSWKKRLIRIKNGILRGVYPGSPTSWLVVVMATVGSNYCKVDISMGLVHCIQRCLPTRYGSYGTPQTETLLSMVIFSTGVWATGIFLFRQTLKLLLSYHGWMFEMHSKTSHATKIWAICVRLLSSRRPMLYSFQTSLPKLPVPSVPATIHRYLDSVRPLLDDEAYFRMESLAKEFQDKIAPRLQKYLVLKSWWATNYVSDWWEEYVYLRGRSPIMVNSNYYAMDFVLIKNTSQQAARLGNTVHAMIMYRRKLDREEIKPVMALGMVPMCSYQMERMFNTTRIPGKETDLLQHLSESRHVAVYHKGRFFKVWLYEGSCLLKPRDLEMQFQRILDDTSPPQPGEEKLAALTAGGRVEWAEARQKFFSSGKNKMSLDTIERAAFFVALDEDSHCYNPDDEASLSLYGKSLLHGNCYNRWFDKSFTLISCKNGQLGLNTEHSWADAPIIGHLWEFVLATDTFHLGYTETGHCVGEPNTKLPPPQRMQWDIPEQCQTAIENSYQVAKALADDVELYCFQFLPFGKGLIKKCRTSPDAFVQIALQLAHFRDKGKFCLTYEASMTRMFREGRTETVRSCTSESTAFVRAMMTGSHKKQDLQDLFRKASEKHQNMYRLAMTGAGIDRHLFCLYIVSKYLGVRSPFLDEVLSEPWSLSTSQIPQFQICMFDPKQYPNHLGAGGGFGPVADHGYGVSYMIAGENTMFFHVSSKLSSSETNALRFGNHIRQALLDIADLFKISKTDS
The experiment is described as follows: Inhibition of CPT in fresh rat heart mitochondrial preparations. The format is biochemical, Fischer rats. As to conditions: rat heart mitochondria, 50 μM [14C]palmitoyl-CoA, 10 mM L-carnitine, 37° C., 1 minute. How it is done: The inhibition of CPT was evaluated on fresh mitochondrial preparations obtained from the liver or heart of Fischer rats, fed normally; the mitochondria taken from the liver or heart are suspended in a 75 mM sucrose buffer, EGTA 1 mM, pH 7.5. 100 μl of a mitochondrial suspension, containing 50 μM of [^14C] palmitoyl-CoA (spec.act. 10000 dpm/mole) and 10 mM of L-carnitine, are incubated at 37° C. in the presence of stepped concentrations (0-3 mM) of product under examination.
as §1

In experiment [1] the test system is CPT-1 in the hypothalamus. The following applies: intracerebroventricular (icv) administration; Nature Medicine, 2003, 9(6), 756-761; cited from earlier work.

Take `CCCCCCCCCCCCCCNC(=O)N[C@H](CC(=O)[O-])C[N+](C)(C)C` [ST1326, R-4-trimethyl ammonium-3-(tetradecylcarbamoyl)-aminobutyrate]: the IC50 against CPT1 liver worked out at 0.36 µM; on CPT1 heart it was 48.8 µM. Besides, the “food intake and gluconeogenesis” value in experiment [1] was “significantly and consistently reducing”.
`CCCCCCCCCCCCCCNC(=O)N[C@H](CC(=O)O)CN(C)C` [ST2837, (R)-4-(dimethylamino)-3-(tetradecylcarbamoyl)-amino-butyric Acid]: the IC50 was found to be 5.7 µM against CPT1 liver and 70 µM against CPT1 heart.
